Numbers after ± are expanded uncertainties.
What was measured:
[1] = wn = mass fraction of the nth substance listed; details: 101 kPa, Liquid
[2] = xn = mol fraction of the nth substance listed; details: 101 kPa, Liquid

With `CN(CCO)CCO` [N-methyldiethanolamine] + O the mass density ([1]; 298.15 K, w1 = 0.3228) was 1027.27 ± 1.1 kg/m3, the mass density ([1]; 298.15 K, w1 = 0.488) was 1041.37 ± 1.3 kg/m3 and the mass density ([1]; 303.15 K, w1 = 0.3228) was 1024.82 ± 1.1 kg/m3. The mass density ([1]; 303.15 K, w1 = 0.488) was 1038.16 ± 1.2 kg/m3, the mass density ([1]; 308.15 K, w1 = 0.3228) was 1022.16 ± 1.1 kg/m3 and the mass density ([1]; 308.15 K, w1 = 0.488) was 1034.94 ± 1.2 kg/m3. The mass density ([1]; 313.15 K, w1 = 0.3228) was 1019.44 ± 1.1 kg/m3, the mass density ([1]; 313.15 K, w1 = 0.488) was 1031.74 ± 1.2 kg/m3 and the mass density ([1]; 318.15 K, w1 = 0.3228) was 1016.54 ± 1 kg/m3. For the same compound, the mass density ([1]; 318.15 K, w1 = 0.488) was 1028.35 ± 1.1 kg/m3, the mass density ([1]; 323.15 K, w1 = 0.3228) was 1013.63 ± 1 kg/m3 and the mass density ([1]; 323.15 K, w1 = 0.488) was 1024.83 ± 1.1 kg/m3. The mass density ([1]; 328.15 K, w1 = 0.3228) was 1010.47 ± 0.98 kg/m3, the mass density ([1]; 328.15 K, w1 = 0.488) was 1021.38 ± 1.1 kg/m3 and the mass density ([1]; 333.15 K, w1 = 0.3228) was 1007.39 ± 0.95 kg/m3. It also gave a mass density ([1]; 333.15 K, w1 = 0.488) of 1017.75 ± 1 kg/m3, a mass density ([1]; 338.15 K, w1 = 0.3228) of 1003.91 ± 0.92 kg/m3 and a mass density ([1]; 338.15 K, w1 = 0.488) of 1014.17 ± 0.99 kg/m3. For the same compound, the mass density ([2]; 298.15 K, x1 = 0.0128) was 1004.06 ± 0.98 kg/m3, the mass density ([2]; 298.15 K, x1 = 0.0212) was 1008.41 ± 1 kg/m3 and the mass density ([2]; 298.15 K, x1 = 0.0498) was 1020.08 ± 1.1 kg/m3. It also gave a mass density ([2]; 298.15 K, x1 = 0.0645) of 1026.39 ± 1.2 kg/m3, a mass density ([2]; 298.15 K, x1 = 0.0799) of 1030.85 ± 1.2 kg/m3 and a mass density ([2]; 298.15 K, x1 = 0.1332) of 1042.8 ± 1.3 kg/m3. It also gave a mass density ([2]; 298.15 K, x1 = 0.1557) of 1045.44 ± 1.4 kg/m3, a mass density ([2]; 298.15 K, x1 = 0.1944) of 1049.91 ± 1.4 kg/m3 and a mass density ([2]; 298.15 K, x1 = 0.2407) of 1050.84 ± 1.4 kg/m3. For the same compound, the mass density ([2]; 298.15 K, x1 = 0.2725) was 1052.41 ± 1.4 kg/m3, the mass density ([2]; 298.15 K, x1 = 0.366) was 1052.54 ± 1.4 kg/m3 and the mass density ([2]; 298.15 K, x1 = 0.4302) was 1050.97 ± 1.4 kg/m3. The mass density ([2]; 298.15 K, x1 = 0.5642) was 1046.85 ± 1.3 kg/m3, the mass density ([2]; 298.15 K, x1 = 0.6687) was 1041.44 ± 1.2 kg/m3 and the mass density ([2]; 298.15 K, x1 = 0.7531) was 1039.27 ± 1.2 kg/m3. It also gave a mass density ([2]; 303.15 K, x1 = 0.0128) of 1002.48 ± 0.97 kg/m3, a mass density ([2]; 303.15 K, x1 = 0.0212) of 1006.7 ± 1 kg/m3 and a mass density ([2]; 303.15 K, x1 = 0.0498) of 1017.93 ± 1.1 kg/m3. The mass density ([2]; 303.15 K, x1 = 0.0645) was 1023.98 ± 1.2 kg/m3, the mass density ([2]; 303.15 K, x1 = 0.0799) was 1028.25 ± 1.2 kg/m3 and the mass density ([2]; 303.15 K, x1 = 0.1332) was 1039.65 ± 1.3 kg/m3. The mass density ([2]; 303.15 K, x1 = 0.1557) was 1042.17 ± 1.3 kg/m3, the mass density ([2]; 303.15 K, x1 = 0.1944) was 1046.42 ± 1.4 kg/m3 and the mass density ([2]; 303.15 K, x1 = 0.2407) was 1048.11 ± 1.4 kg/m3. It also gave a mass density ([2]; 303.15 K, x1 = 0.2725) of 1048.8 ± 1.4 kg/m3, a mass density ([2]; 303.15 K, x1 = 0.366) of 1048.78 ± 1.3 kg/m3 and a mass density ([2]; 303.15 K, x1 = 0.4302) of 1047.2 ± 1.3 kg/m3. For the same compound, the mass density ([2]; 303.15 K, x1 = 0.5642) was 1043.08 ± 1.3 kg/m3, the mass density ([2]; 303.15 K, x1 = 0.6687) was 1037.68 ± 1.2 kg/m3 and the mass density ([2]; 303.15 K, x1 = 0.7531) was 1035.87 ± 1.2 kg/m3. The mass density ([2]; 308.15 K, x1 = 0.0128) was 1000.7 ± 0.95 kg/m3, the mass density ([2]; 308.15 K, x1 = 0.0212) was 1004.8 ± 0.99 kg/m3 and the mass density ([2]; 308.15 K, x1 = 0.0498) was 1015.63 ± 1.1 kg/m3. The mass density ([2]; 308.15 K, x1 = 0.0645) was 1021.43 ± 1.1 kg/m3, the mass density ([2]; 308.15 K, x1 = 0.0799) was 1025.53 ± 1.2 kg/m3 and the mass density ([2]; 308.15 K, x1 = 0.1332) was 1036.42 ± 1.3 kg/m3. The mass density ([2]; 308.15 K, x1 = 0.1557) was 1038.83 ± 1.3 kg/m3, the mass density ([2]; 308.15 K, x1 = 0.1944) was 1042.86 ± 1.3 kg/m3 and the mass density ([2]; 308.15 K, x1 = 0.2407) was 1044.45 ± 1.3 kg/m3. For the same compound, the mass density ([2]; 308.15 K, x1 = 0.2725) was 1045.14 ± 1.3 kg/m3, the mass density ([2]; 308.15 K, x1 = 0.366) was 1044.97 ± 1.3 kg/m3 and the mass density ([2]; 308.15 K, x1 = 0.4302) was 1043.38 ± 1.3 kg/m3. It also gave a mass density ([2]; 308.15 K, x1 = 0.5642) of 1039.28 ± 1.2 kg/m3, a mass density ([2]; 308.15 K, x1 = 0.6687) of 1033.89 ± 1.2 kg/m3 and a mass density ([2]; 308.15 K, x1 = 0.7531) of 1031.92 ± 1.1 kg/m3. It also gave a mass density ([2]; 313.15 K, x1 = 0.0128) of 998.731 ± 0.95 kg/m3, a mass density ([2]; 313.15 K, x1 = 0.0212) of 1002.72 ± 0.97 kg/m3 and a mass density ([2]; 313.15 K, x1 = 0.0498) of 1013.18 ± 1.1 kg/m3. For the same compound, the mass density ([2]; 313.15 K, x1 = 0.0645) was 1018.77 ± 1.1 kg/m3, the mass density ([2]; 313.15 K, x1 = 0.0799) was 1022.69 ± 1.1 kg/m3 and the mass density ([2]; 313.15 K, x1 = 0.1332) was 1033.1 ± 1.2 kg/m3. The mass density ([2]; 313.15 K, x1 = 0.1557) was 1035.41 ± 1.3 kg/m3, the mass density ([2]; 313.15 K, x1 = 0.1944) was 1039.23 ± 1.3 kg/m3 and the mass density ([2]; 313.15 K, x1 = 0.2407) was 1040.73 ± 1.3 kg/m3. For the same compound, the mass density ([2]; 313.15 K, x1 = 0.2725) was 1041.41 ± 1.3 kg/m3, the mass density ([2]; 313.15 K, x1 = 0.366) was 1041.1 ± 1.3 kg/m3 and the mass density ([2]; 313.15 K, x1 = 0.4302) was 1039.51 ± 1.2 kg/m3. It also gave a mass density ([2]; 313.15 K, x1 = 0.5642) of 1035.45 ± 1.2 kg/m3.

From the NIST ThermoML archive (doi:10.1021/je800416y)
